# Results published in paper PMC10838953.
# Key:
# [1] = test system: AKT (S129); details: 786-O cells; 48 h
# [2] = test system: RPTEC (renal proximal tubule epithelial cells); details: high concentrations
# [3] = test system: primary hepatocytes; assay: cells; details: Hepatocyte, read-out: IC50 cell viability
# [4] = target: ABL1(Q252H)-nonphosphorylated (Homo sapiens, UniProt P00519, Q252H); assay: biochemical; details: read-out: %Ctrl @ 2000nM
# [5] = target: ACVR1 (Homo sapiens, UniProt Q04771); assay: biochemical; details: read-out: %Ctrl @ 2000nM
# [6] = target: AMPK-alpha2 (Homo sapiens, UniProt P54646); assay: biochemical; details: read-out: %Ctrl @ 2000nM
# [7] = target: ANKK1 (Homo sapiens, UniProt Q8NFD2); assay: biochemical; details: read-out: %Ctrl @ 2000nM
# [8] = target: ARK5 (Homo sapiens, UniProt O60285); assay: biochemical; details: read-out: %Ctrl @ 2000nM
# [9] = target: AURKA (Homo sapiens, UniProt O14965); assay: biochemical; details: read-out: %Ctrl @ 2000nM
# [10] = target: CDK2 (Homo sapiens, UniProt P24941); assay: biochemical; details: read-out: %Ctrl @ 2000nM
# [11] = target: CDKL3 (Homo sapiens, UniProt Q8IVW4); assay: biochemical; details: read-out: %Ctrl @ 2000nM
# [12] = target: CTK (Homo sapiens, UniProt P42679); assay: biochemical; details: read-out: %Ctrl @ 2000nM
# [13] = target: DDR1 (Homo sapiens, UniProt Q08345); assay: biochemical; details: read-out: %Ctrl @ 2000nM
# [14] = target: DLK (Homo sapiens, UniProt Q12852); assay: biochemical; details: read-out: %Ctrl @ 2000nM
# DLK, sequence (Q12852 whole entry): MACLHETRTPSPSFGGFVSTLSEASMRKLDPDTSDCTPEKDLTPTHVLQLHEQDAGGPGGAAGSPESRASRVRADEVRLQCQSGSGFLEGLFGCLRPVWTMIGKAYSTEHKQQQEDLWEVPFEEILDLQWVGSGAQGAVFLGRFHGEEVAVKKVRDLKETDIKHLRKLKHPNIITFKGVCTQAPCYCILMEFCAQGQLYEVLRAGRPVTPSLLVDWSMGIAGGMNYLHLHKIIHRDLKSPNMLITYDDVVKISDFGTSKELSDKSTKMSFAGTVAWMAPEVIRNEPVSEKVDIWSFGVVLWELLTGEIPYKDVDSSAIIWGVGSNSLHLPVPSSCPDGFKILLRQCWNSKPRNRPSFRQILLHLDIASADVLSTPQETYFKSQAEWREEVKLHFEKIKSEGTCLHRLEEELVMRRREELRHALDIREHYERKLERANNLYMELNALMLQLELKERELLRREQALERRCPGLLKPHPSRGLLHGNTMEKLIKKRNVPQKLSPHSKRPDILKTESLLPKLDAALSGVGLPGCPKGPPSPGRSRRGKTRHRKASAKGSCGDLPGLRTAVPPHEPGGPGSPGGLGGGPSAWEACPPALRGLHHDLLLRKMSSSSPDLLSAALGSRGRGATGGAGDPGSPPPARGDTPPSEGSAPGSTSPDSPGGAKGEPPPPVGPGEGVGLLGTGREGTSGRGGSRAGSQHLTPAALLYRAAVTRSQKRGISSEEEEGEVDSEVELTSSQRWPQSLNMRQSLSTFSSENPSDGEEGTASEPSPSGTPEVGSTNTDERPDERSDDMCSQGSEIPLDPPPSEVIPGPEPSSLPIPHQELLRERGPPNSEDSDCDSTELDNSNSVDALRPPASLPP
# [15] = target: DYRK2 (Homo sapiens, UniProt Q92630); assay: biochemical; details: read-out: %Ctrl @ 2000nM
# [16] = target: EGFR(E746-A750del) (Homo sapiens, UniProt P00533, DEL746-750); assay: biochemical; details: read-out: %Ctrl @ 2000nM
# EGFR(E746-A750del), sequence (P00533 with tags, fused parts or gaps DEL746-750 limits assumed): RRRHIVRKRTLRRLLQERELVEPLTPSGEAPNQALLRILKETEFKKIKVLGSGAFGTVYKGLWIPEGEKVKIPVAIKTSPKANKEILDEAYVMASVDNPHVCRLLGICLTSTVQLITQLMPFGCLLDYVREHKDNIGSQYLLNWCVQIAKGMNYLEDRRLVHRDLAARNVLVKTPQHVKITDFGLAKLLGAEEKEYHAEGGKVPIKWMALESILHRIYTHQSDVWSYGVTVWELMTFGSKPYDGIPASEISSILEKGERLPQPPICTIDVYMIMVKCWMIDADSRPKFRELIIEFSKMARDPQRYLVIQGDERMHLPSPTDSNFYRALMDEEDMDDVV
# [17] = target: EGFR(G719C) (Homo sapiens, UniProt P00533, G719C); assay: biochemical; details: read-out: %Ctrl @ 2000nM
# [18] = target: EIF2AK1 (Homo sapiens, UniProt Q9BQI3); assay: biochemical; details: read-out: %Ctrl @ 2000nM
# [19] = target: EPHB2 (Homo sapiens, UniProt P29323); assay: biochemical; details: read-out: %Ctrl @ 2000nM
# [20] = target: FAK (Homo sapiens, UniProt Q05397); assay: biochemical; details: read-out: %Ctrl @ 2000nM
# [21] = target: FGR (Homo sapiens, UniProt P09769); assay: biochemical; details: read-out: %Ctrl @ 2000nM
# FGR, sequence (P09769 whole entry): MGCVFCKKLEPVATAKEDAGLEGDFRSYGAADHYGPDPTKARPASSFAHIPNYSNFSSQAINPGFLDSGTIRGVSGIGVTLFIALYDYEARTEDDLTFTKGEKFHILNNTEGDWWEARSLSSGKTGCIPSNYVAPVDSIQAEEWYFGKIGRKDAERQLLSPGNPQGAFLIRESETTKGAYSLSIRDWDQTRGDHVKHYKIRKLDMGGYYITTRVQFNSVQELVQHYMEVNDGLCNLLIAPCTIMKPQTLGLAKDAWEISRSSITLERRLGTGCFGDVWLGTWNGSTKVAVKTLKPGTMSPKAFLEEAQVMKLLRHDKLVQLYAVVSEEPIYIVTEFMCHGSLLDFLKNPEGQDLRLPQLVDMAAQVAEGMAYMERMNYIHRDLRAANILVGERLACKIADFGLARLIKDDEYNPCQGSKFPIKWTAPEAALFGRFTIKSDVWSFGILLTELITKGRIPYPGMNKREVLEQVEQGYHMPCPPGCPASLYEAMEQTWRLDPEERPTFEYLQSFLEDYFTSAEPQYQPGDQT
# [22] = target: FLT3(D835H) (Homo sapiens, UniProt P36888, D835H); assay: biochemical; details: read-out: %Ctrl @ 2000nM
# [23] = target: HIPK2 (Homo sapiens, UniProt Q9H2X6); assay: biochemical; details: read-out: %Ctrl @ 2000nM
# [24] = target: IGF1R (Homo sapiens, UniProt P08069); assay: biochemical; details: read-out: %Ctrl @ 2000nM
# [25] = target: IKK-alpha (Homo sapiens, UniProt O15111); assay: biochemical; details: read-out: %Ctrl @ 2000nM
# [26] = target: KIT(D816V) (Homo sapiens, UniProt P10721, D816V); assay: biochemical; details: read-out: %Ctrl @ 2000nM
# [27] = target: LIMK1 (Homo sapiens, UniProt P53667); assay: biochemical; details: read-out: %Ctrl @ 2000nM
# LIMK1, sequence (P53667 whole entry): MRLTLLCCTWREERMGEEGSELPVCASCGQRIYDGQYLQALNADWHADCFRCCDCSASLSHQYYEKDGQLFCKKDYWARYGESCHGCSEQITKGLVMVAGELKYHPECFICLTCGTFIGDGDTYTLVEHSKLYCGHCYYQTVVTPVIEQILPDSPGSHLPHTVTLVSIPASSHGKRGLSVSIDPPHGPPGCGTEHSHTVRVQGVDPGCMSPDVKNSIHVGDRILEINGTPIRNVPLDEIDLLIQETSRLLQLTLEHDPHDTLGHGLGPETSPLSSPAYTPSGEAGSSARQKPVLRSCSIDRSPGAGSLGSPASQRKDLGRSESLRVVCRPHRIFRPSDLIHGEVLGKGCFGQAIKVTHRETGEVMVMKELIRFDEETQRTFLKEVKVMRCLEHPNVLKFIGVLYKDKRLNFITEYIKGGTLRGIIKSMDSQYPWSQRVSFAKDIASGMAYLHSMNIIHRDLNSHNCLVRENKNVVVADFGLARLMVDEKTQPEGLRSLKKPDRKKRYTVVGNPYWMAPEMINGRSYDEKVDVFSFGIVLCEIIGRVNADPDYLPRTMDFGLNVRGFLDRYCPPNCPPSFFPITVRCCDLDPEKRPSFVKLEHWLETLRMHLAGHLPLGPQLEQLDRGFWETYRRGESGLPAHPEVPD
# [28] = target: MAP4K3 (Homo sapiens, UniProt Q8IVH8); assay: biochemical; details: read-out: %Ctrl @ 2000nM
# [29] = target: MET (Homo sapiens, UniProt P08581); assay: biochemical; details: read-out: %Ctrl @ 2000nM
# MET, sequence (P08581 25-1390): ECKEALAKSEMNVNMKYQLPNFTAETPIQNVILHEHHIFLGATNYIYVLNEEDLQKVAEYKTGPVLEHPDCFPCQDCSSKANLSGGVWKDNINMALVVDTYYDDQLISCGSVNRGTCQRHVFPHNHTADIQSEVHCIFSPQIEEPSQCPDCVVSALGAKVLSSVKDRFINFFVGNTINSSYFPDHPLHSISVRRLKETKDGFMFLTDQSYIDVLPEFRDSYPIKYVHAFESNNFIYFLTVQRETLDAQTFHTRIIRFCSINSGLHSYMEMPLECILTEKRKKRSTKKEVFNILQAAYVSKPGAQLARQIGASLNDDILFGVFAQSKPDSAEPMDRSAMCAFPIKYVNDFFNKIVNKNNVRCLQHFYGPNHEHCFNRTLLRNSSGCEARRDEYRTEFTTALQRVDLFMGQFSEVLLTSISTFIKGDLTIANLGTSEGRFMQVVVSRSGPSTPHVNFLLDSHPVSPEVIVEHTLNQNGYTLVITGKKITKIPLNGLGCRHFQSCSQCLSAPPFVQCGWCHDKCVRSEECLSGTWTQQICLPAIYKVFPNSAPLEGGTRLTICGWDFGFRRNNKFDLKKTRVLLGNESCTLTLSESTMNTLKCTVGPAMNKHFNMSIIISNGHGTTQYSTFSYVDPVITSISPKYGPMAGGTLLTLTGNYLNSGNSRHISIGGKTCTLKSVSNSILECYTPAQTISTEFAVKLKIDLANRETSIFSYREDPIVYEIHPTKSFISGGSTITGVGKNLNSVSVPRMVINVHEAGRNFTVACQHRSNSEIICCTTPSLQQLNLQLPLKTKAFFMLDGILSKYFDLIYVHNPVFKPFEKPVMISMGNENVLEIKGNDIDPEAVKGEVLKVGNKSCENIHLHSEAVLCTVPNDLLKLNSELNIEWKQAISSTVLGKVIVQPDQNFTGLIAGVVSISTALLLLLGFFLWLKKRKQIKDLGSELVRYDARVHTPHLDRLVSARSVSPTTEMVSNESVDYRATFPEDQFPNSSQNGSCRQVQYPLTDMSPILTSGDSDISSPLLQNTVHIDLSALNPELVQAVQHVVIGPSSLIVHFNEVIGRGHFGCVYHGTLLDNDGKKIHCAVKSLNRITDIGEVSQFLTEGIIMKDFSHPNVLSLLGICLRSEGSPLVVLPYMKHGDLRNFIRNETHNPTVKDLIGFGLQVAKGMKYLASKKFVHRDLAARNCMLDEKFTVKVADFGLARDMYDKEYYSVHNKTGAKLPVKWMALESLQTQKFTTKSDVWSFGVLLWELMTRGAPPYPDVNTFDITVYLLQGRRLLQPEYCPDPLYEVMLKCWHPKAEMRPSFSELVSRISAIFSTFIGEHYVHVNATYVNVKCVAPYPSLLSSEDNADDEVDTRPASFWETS
# [30] = target: NDR1 (Homo sapiens, UniProt Q15208); assay: biochemical; details: read-out: %Ctrl @ 2000nM
# [31] = target: NEK10 (Homo sapiens, UniProt Q6ZWH5); assay: biochemical; details: read-out: %Ctrl @ 2000nM
# [32] = target: NEK5 (Homo sapiens, UniProt Q6P3R8); assay: biochemical; details: read-out: %Ctrl @ 2000nM
# [33] = target: NIM1 (Homo sapiens, UniProt Q8IY84); assay: biochemical; details: read-out: %Ctrl @ 2000nM
# [34] = target: PIK3CA(E545A) (Homo sapiens, UniProt P42336, E545A); assay: biochemical; details: read-out: %Ctrl @ 2000nM
# [35] = target: RIOK3 (Homo sapiens, UniProt O14730); assay: biochemical; details: read-out: %Ctrl @ 2000nM
# [36] = target: RIPK1 (Homo sapiens, UniProt Q13546); assay: biochemical; details: read-out: %Ctrl @ 2000nM
# [37] = target: RPS6KA5(Kin.Dom.1-N-terminal) (Homo sapiens, UniProt O75582); assay: biochemical; details: read-out: %Ctrl @ 2000nM
# [38] = target: SBK1 (Homo sapiens, UniProt Q52WX2); assay: biochemical; details: read-out: %Ctrl @ 2000nM
# [39] = target: TAOK3 (Homo sapiens, UniProt Q9H2K8); assay: biochemical; details: read-out: %Ctrl @ 2000nM
# [40] = target: TIE1 (Homo sapiens, UniProt P35590); assay: biochemical; details: read-out: %Ctrl @ 2000nM
# [41] = target: TNIK (Homo sapiens, UniProt Q9UKE5); assay: biochemical; details: read-out: %Ctrl @ 2000nM
# TNIK, sequence (Q9UKE5 whole entry): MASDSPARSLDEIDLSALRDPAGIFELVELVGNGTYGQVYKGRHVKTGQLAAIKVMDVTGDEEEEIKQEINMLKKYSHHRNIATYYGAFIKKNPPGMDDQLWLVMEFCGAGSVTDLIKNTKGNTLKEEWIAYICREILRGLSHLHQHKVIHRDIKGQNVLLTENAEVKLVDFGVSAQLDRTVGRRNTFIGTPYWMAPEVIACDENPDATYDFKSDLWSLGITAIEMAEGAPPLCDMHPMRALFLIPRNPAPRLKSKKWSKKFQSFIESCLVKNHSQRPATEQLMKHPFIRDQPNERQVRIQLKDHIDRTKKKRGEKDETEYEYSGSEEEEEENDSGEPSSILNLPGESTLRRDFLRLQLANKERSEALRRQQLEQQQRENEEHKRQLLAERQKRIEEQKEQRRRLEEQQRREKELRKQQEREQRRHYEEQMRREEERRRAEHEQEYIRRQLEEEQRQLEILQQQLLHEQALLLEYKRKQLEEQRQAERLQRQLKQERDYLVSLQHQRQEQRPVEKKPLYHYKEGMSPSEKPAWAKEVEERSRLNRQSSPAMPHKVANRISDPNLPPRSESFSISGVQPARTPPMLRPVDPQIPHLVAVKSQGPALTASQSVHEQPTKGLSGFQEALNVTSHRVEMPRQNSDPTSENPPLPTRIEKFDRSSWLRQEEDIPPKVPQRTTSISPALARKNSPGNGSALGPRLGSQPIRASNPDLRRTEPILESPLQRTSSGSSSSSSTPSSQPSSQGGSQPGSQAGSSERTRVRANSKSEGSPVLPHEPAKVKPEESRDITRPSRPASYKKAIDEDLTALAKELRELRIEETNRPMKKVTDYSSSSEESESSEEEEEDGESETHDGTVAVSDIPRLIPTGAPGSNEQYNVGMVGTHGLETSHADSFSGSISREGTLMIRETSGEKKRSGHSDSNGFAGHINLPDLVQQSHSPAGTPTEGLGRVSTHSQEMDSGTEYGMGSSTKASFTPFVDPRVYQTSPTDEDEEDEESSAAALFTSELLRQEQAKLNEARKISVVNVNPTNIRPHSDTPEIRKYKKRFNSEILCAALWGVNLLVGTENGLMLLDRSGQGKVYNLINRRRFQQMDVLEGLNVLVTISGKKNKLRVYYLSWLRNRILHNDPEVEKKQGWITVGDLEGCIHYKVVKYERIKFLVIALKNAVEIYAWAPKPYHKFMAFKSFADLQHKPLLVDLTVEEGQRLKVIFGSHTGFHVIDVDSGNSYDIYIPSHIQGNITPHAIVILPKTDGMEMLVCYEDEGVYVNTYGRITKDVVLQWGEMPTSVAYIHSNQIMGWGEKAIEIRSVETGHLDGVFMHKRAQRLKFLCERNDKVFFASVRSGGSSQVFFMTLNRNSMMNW
# [42] = target: TRKA (Homo sapiens, UniProt P04629); assay: biochemical; details: read-out: %Ctrl @ 2000nM
# [43] = target: WEE1 (Homo sapiens, UniProt P30291); assay: biochemical; details: read-out: %Ctrl @ 2000nM
compound,measurement,setting,value
"CC(C)COC(=O)c1[nH]c2ccc(F)cc2c1-c1cn(CC2CCN(CCNS(=O)(=O)c3ccc(CC(C)C)cc3)CC2)nn1 [AB668, isobutyl 5-fluoro-3-(1-((1-(2-((4-isobutylphenyl)sulfonamido)ethyl)piperidin-4-yl)methyl)-1H-1,2,3-triazol-4-yl)-1H-indole-2-carboxylate]",phosphorylation of S129AKT,[1],"decreased, in a dose-dependent manner"
same,cytotoxicity,[2],no cytotoxicity
same,IC50,[3],> 100 µM
same,remaining activity at 2 µM,[4],73%
same,remaining activity at 2 µM,[5],100%
same,remaining activity at 2 µM,[6],100%
same,remaining activity at 2 µM,[7],100%
same,remaining activity at 2 µM,[8],83%
same,remaining activity at 2 µM,[9],100%
same,remaining activity at 2 µM,[10],90%
same,remaining activity at 2 µM,[11],88%
same,remaining activity at 2 µM,[12],82%
same,remaining activity at 2 µM,[13],96%
same,remaining activity at 2 µM,[14],83%
same,remaining activity at 2 µM,[15],76%
same,remaining activity at 2 µM,[16],88%
same,remaining activity at 2 µM,[17],83%
same,remaining activity at 2 µM,[18],88%
same,remaining activity at 2 µM,[19],98%
same,remaining activity at 2 µM,[20],91%
same,remaining activity at 2 µM,[21],72%
same,remaining activity at 2 µM,[22],89%
same,remaining activity at 2 µM,[23],100%
same,remaining activity at 2 µM,[24],73%
same,remaining activity at 2 µM,[25],100%
same,remaining activity at 2 µM,[26],95%
same,remaining activity at 2 µM,[27],100%
same,remaining activity at 2 µM,[28],82%
same,remaining activity at 2 µM,[29],100%
same,remaining activity at 2 µM,[30],93%
same,remaining activity at 2 µM,[31],80%
same,remaining activity at 2 µM,[32],84%
same,remaining activity at 2 µM,[33],84%
same,remaining activity at 2 µM,[34],100%
same,remaining activity at 2 µM,[35],97%
same,remaining activity at 2 µM,[36],96%
same,remaining activity at 2 µM,[37],95%
same,remaining activity at 2 µM,[38],88%
same,remaining activity at 2 µM,[39],100%
same,remaining activity at 2 µM,[40],89%
same,remaining activity at 2 µM,[41],88%
same,remaining activity at 2 µM,[42],96%
same,remaining activity at 2 µM,[43],96%
